17 compounds from paper PMC3427785 (The Journal of organic chemistry, 2012) can be followed below.

Read-outs that look alike come from different tables or passages of the source. Where only a bound is given, the exact number is not on record here.

For orientation: IC50 means the concentration that inhibits the measured activity by half. As usually defined, the GI50 is the concentration at which growth is held to half of that of the control.

One data set has as its system cytomegalovirus (CMV). Put plainly: Anti-CMV activity in HEL cells as summarised in text. In kind it is cell-based.
In another data set the test system is HEL cells. Briefly: HEL cell growth inhibition. The data set is classed as cell-based, human. The note with it: read-out: HEL cell effects, cell growth (IC50); concentration required to reduce cell growth by 50%.
Data set [1] has as its system human ovarian cancer 1A9 cells. Put plainly: Antiproliferative activity. The data set is classed as cell-based. The note with it: read-out: GI50, 1A9; ovarian 1A9; four days.
The next data set deals with 1A9-PTX10. Put plainly: Antiproliferative activity. The data set is classed as cell-based, human.
In a further data set the test system is 1A9-PTX22. Put plainly: Antiproliferative activity. The data set is classed as cell-based, human. The following applies: read-out: GI50, PTX22; paclitaxel-resistant ovarian 1A9-PTX22; four days.
Data set [2] relates to colorectal carcinoma HCT116 cells. Briefly: Antiproliferative activity. In kind it is cell-based, human. The note with it: read-out: GI50, HCT116, four days.
In data set [3] the test system is HCT116 p53 knockout cells. The data set is classed as cell-based, human. The following applies: read-out: GI50, p53KO, four days.
Data set [4] has as its system cytomegalovirus (CMV) AD-169 strain. Put plainly: Anti-CMV activity. In kind it is cell-based. The following applies: read-out: anti-CMV activity EC50, AD-169 strain.
Data set [5] relates to cytomegalovirus (CMV) Davis strain. Put plainly: Anti-CMV activity. In kind it is cell-based. The note with it: read-out: anti-CMV activity EC50, Davis strain.
In data set [6] the test system is vesicular stomatitis virus (VSV). The data set is classed as cell-based. The note with it: read-out: anti-VSV activity; human cervix carcinoma HeLa cell cultures.
Data set [7] has the same test system. The data set is classed as cell-based. The following applies: human embryonic lung (HEL) fibroblast cell cultures.
Data set [8] relates to HeLa and HEL cell cultures.
Setting [9] is: read-out: GI50, PTX10, paclitaxel-resistant ovarian 1A9-PTX10, four days.

In the case of “2-[4-(Ferrocenyl)-1,2,3-triazol-1H-yl]inosine [Compound 22]”, the “activity against cytomegalovirus (in words)” value with cytomegalovirus (CMV) (HEL cells) is listed as “marginal activity”. For the same compound, the half-inhibitory concentration (IC50) in the data set with HEL cells worked out at 123 µM. For the same compound, the GI50 is 29.7 µM in data set [1]; above 50 µM in the data set with 1A9-PTX10 (setting [9]); 12.9 µM with 1A9-PTX22; above 50 µM in data set [2]; above 50 µM in data set [3].
As to “2-(4-n-Butyl-1,2,3-triazol-1H-yl)inosine [Compound 23]”, the “activity against cytomegalovirus (in words)” value in the data set on cytomegalovirus (CMV) (HEL cells) was “somewhat more pronounced”. In addition, the IC50 in the data set with HEL cells was above 250 µM. Further, the 50% growth inhibitory concentration (GI50) is 37 µM in data set [1]; above 50 µM with 1A9-PTX10 (setting [9]); 28.1 µM with 1A9-PTX22; above 50 µM in [2]; above 50 µM in [3].
With `CC(=O)O[C@H]1C(=O)[C@@]2(C)[C@H]([C@H](OC(=O)c3ccccc3)[C@]3(O)C[C@H](OC(=O)[C@H](O)[C@@H](NC(=O)c4ccccc4)c4ccccc4)C(C)=C1C3(C)C)[C@]1(OC(C)=O)CO[C@@H]1C[C@@H]2O` [paclitaxel, reference compound], the concentration for 50% growth inhibition (GI50) in the data set with 1A9-PTX10 (Homo sapiens, 1A9/ptx-10, read-out: GI50, PTX10) was determined as 0.079 µM.
For “6-(Morpholin-4-yl)-2-(4-phenyl-1,2,3-triazol-1H-yl)-9-(β-D-ribofuranosyl)purine [Compound 34]”, the GI50 in data set [1] was found to be 0.18 µM; with 1A9-PTX10 (setting [9]), 11.7 µM; in the data set on 1A9-PTX22, 0.95 µM; in data set [2], 3.7 µM; in [3] it was 10.4 µM. Moreover, the “minimum detectable morphology-altering (cytotoxic) concentration (MCC)” value is given as 8.3 μM in the data set with canine kidney MDCK, 83 μM in the data set with feline kidney CRFK and 210 μM with green monkey kidney Vero.
As to “2-[4-(Hydroxymethyl)-1,2,3-triazol-1H-yl]inosine [Compound 20]”, the GI50 was 20.4 µM in [1]; above 50 µM in the data set with 1A9-PTX10 (setting [9]); 3.53 µM with 1A9-PTX22; above 50 µM in data set [2]; 42.6 µM in [3].
In the case of `COc1ccc(-c2cn(-c3nc(O)c4ncn([C@H]5C[C@H](O)[C@@H](CO)O5)c4n3)nn2)cc1` [Compound 26, 2-[4-(4-Methoxyphenyl)-1,2,3-triazol-1H-yl]-2′-deoxyinosine], the EC50 in data set [4] and in data set [5] was above 240 µM each time. The GI50 in data set [1] was 37.2 µM; in the data set on 1A9-PTX10 (setting [9]), above 50 µM; in the data set on 1A9-PTX22, 15.7 µM; in data set [2], above 50 µM; in data set [3] it was above 50 µM.
Turning to `OC[C@H]1O[C@@H](n2cnc3c(O)nc(-n4cc(-c5ccccc5)nn4)nc32)C[C@@H]1O` [Compound 25, 2-[4-(Phenyl)-1,2,3-triazol-1H-yl]-2′-deoxyinosine], the EC50 in data set [4] was at least 250 µM; in [5], 158 µM. In the data set with cytomegalovirus (CMV), the “activity against cytomegalovirus (in words)” value is on record as “marginal activity”. The IC50 in the data set with HEL cells came out at 188 µM. For the same compound, the GI50 in data set [1] is 31 µM; in the data set on 1A9-PTX10 (setting [9]), above 50 µM; with 1A9-PTX22, 14.8 µM; in data set [2], above 50 µM; in data set [3], above 50 µM.
For the compound “2-[4-(N-Phthalimidomethyl)-1,2,3-triazol-1H-yl]inosine [Compound 21]”, the IC50 in the data set with HEL cells was above 200 µM. Besides, the GI50 in data set [1] is 6.32 µM; with 1A9-PTX10 (setting [9]), above 50 µM; in the data set on 1A9-PTX22 it was 14.1 µM; in data set [2] it was above 50 µM; in data set [3], above 50 µM.
In the case of “2-[4-(4-Methoxyphenyl)-1,2,3-triazol-1H-yl]inosine [Compound 19]”, in the data set with HEL cells, the IC50 is above 230 µM. Further, the GI50 in data set [1] was 29.5 µM; in the data set with 1A9-PTX10 (setting [9]), above 50 µM; with 1A9-PTX22 it was 8.56 µM; in data set [2], above 50 µM; in data set [3], above 50 µM.
For the compound “2-[4-(4-Methylphenyl)-1,2,3-triazol-1H-yl]inosine [Compound 18]”, the “activity against cytomegalovirus (in words)” value in the data set with cytomegalovirus (CMV) (HEL cells) is “marginal activity”. Also, the IC50 in the data set on HEL cells is at least 240 µM. Also, the 50% growth inhibitory concentration (GI50) in data set [1] was 38 µM; in the data set with 1A9-PTX10 (setting [9]), above 50 µM; with 1A9-PTX22 it was 13.4 µM; in [2], above 50 µM; in [3], above 50 µM.
Consider `OCc1cn(-c2nc(O)c3ncn([C@H]4C[C@H](O)[C@@H](CO)O4)c3n2)nn1` [Compound 27, 2-[4-(Hydroxymethyl)-1,2,3-triazol-1H-yl]-2′-deoxyinosine], for which the EC50 in data set [4] and in [5] was above 290 µM in each case. In addition, the GI50 in [1] was 49.4 µM; with 1A9-PTX10 (setting [9]) it was above 50 µM; with 1A9-PTX22 it was 32.9 µM; in data set [2], above 50 µM; in data set [3], above 50 µM.
As for `O=C1c2ccccc2C(=O)N1Cc1cn(-c2nc(O)c3ncn([C@H]4C[C@H](O)[C@@H](CO)O4)c3n2)nn1` [Compound 28, 2-[4-(N-Phthalimidomethyl)-1,2,3-triazol-1H-yl]-2′-deoxyinosine], the EC50 in data set [4] and in data set [5] was above 210 µM in each case. Also, the concentration for 50% growth inhibition (GI50) is 49.6 µM in [1]; above 50 µM in the data set with 1A9-PTX10 (setting [9]); 32.2 µM in the data set with 1A9-PTX22; above 50 µM in data set [2]; above 50 µM in data set [3].
Consider `OC[C@H]1O[C@@H](n2cnc3c(O)nc(-n4cc(-[c-]5cccc5)nn4)nc32)C[C@@H]1O.[Fe+2].c1cc[cH-]c1` [Compound 29, 2-[4-(Ferrocenyl)-1,2,3-triazol-1H-yl]-2′-deoxyinosine], for which the EC50 in [4] and in [5] was at least 200 µM in each case. In the data set on HEL cells, the IC50 is above 200 µM. The GI50 in [1] is 41.6 µM; with 1A9-PTX10 (setting [9]), above 50 µM; with 1A9-PTX22, 18 µM; in data set [2] it was above 50 µM; in data set [3], above 50 µM.
In the case of `CCCCc1cn(-c2nc(O)c3ncn([C@H]4C[C@H](O)[C@@H](CO)O4)c3n2)nn1` [Compound 30, 2-(4-n-Butyl-1,2,3-triazol-1H-yl)-2′-deoxyinosine], the EC50 in data set [4] and in [5] was above 270 µM throughout. Besides, the GI50 is 46.1 µM in data set [1]; above 50 µM with 1A9-PTX10 (setting [9]); 26.9 µM in the data set on 1A9-PTX22; above 50 µM in data set [2]; above 50 µM in data set [3].
Consider `OC[C@H]1O[C@@H](n2cnc3c(O)nc(-n4cc(-c5ccccc5)nn4)nc32)[C@H](O)[C@@H]1O` [Compound 17, 2-[4-(Phenyl)-1,2,3-triazol-1H-yl]inosine], for which the EC50 in [6] turned out to be 27 ± 2.4 µM. The “anti-VSV activity (in words)” value in data set [7] was “could not be confirmed”. Further, the GI50 in [1] is 22.8 µM; in the data set with 1A9-PTX10 (setting [9]), above 50 µM; in the data set with 1A9-PTX22, 4.76 µM; in data set [2], above 50 µM; in data set [3], above 50 µM. The compound also returned a toxicity observed in [8] of 100 to 240 µM.
Consider “2-[4-(4-Fluorophenyl)-1,2,3-triazol-1H-yl]inosine [Compound 24]”, for which the GI50 in data set [1] was 34 µM; in the data set with 1A9-PTX10 (setting [9]), above 50 µM; with 1A9-PTX22 it was 31 µM; in data set [2], above 50 µM; in data set [3], above 50 µM.
Regarding `OC[C@H]1O[C@@H](n2cnc3c(NCc4ccccc4)nc(-n4cc(-c5ccccc5)nn4)nc32)[C@H](O)[C@@H]1O` [Compound 35, 6-(N-Benzyl)-2-[4-(phenyl)-1,2,3-triazol-1H-yl]adenosine], the GI50 in data set [1] is 5 µM; in the data set with 1A9-PTX10 (setting [9]) it was above 50 µM; in the data set with 1A9-PTX22 it was 24.5 µM; in [2], 43.6 µM; in [3] it was above 50 µM.
